Data from patent US20120094939A1, “ANTI-VIRAL COMPOUNDS, COMPOSITIONS AND METHODS” (priority 2007, published 2012).
Where two headings read alike, the source gives them in different places.

Columns and labels:
[1] = test system: Huh7/Rep-Feo HCV replicon (HCV RNA replication); type: cell-based, Hepatitis C virus (strain HCV—N, genotype 1b)
Text: Development of the Huh7/Rep-Feo replicon assay. […] This replicon was derived from a chimpanzee infectious clone (strain HCV—N, genotype 1b). In this replicon, the structural genes have been replaced by a reporter gene. The chimeric reporter gene Feo encodes the firefly luciferase protein fused in-frame with neomycin phosphotransferase. This Huh7/Rep-Feo cell supports high levels of autonomous HCV RNA replication because it was derived from the HCV—N strain, which carries an adaptive mutation in NSSA that confers highlevel replication in tissue culture. Furthermore, the level of luciferase correlates well with levels of HCV RNA production, so that luciferase can be used as a reliable surrogate marker for HCV replication. The use of luciferase as a reporter permits quantitative and highthroughput detection of HCV replication levels. The specific use of firefly luciferase makes this replicon especially well-suited for automation, because the luciferase reagent can be added directly to the cell culture system prior to signal detection without the need for cell lysis, washing, or aspiration.
HCV Replicon System-Primary Screening. […] Briefly, this replicon harbors a subgenomic HCV genotype 1b sequence, fused to firefly luciferase, stably replicating under neomycin selection. Cells were propagated in Dulbecco's Modified Eagle's medium (DMEM) containing 10% fetal bovine serum (FBS) supplemented with 1% penicillin-streptomycin, and 500 μg of Geneticin (Invitrogen Corp., Carlsbad, Calif.)/mL. Cells were cultured in a 37° C., 5% CO2-humidified incubator for all experiments. To decrease day-today variability in the assay, a large homogenous population of subconfluent cells was passaged so that a similar lot of cells could be used throughout the HTS assay.
(§1) Primary Screening-HTS. Information about the library of known bioactive compounds that was screened and the general automated HTS protocol is available at http://www.broad.harvard.edu/chembio/index.html (see FIG. 10 for list of primary HTS with known bioactives library). Based on the results of optimization experiments in the 384-well plate format, the general HTS protocol was adapted as follows. Unless otherwise indicated, cells were incubated at all times in a humidified environment with 5% CO2 at 37° C. The assay was initiated by plating 30 μL of medium containing 2000 cells/well into white 384-well opaque-bottom plates (Nunc, Rochester, N.Y.) using an automated plate filler (Bio-Tek uFiller; Winsooki, Vt.) and allowing the cells to adhere for 24 hours. One hundred nL of compound stock solutions in DMSO was transferred from stock plates into the 384-well assay plates using an automated pin-based compound transfer robot (CyBio CyBi-Well vario; Woburn, Mass.). The final compound concentration in each well was estimated to be approximately 10-50 μM, with most compounds at 33 μM. The wells contained 0.33% DMSO by volume. The cells were then incubated for another 48 hours. The luminescent signal from each plate was detected using an automated plate reader (Perkin-Elmer Envision 1; Wellesley, Mass.). This screen was performed in duplicate. For negative controls, entire DMSO-treated control plates were employed, in addition to DMSO-only control wells that were incorporated into each compound assay plate. The cells were assayed for luciferase activity using the Bright-Glo Luciferase assay system (Promega), following the manufacturer's instructions. As a counter-screen, cell viability was assessed using the CellTiterGlo Luminescent cell viability assay (Promega) following the manufacturer's instructions.
Computational Data Analysis-Primary Screening. For each replicate, a mock-treatment distribution based on the total population of mock (DMSO) controls in that replicate was built (FIG. 11).

Huh7/Rep-Feo cells = assay: Primary HTS cell viability counter-screen (CellTiterGlo); type: cell-based, human; settings: Table 2 antiviral hits of DOS set; approximately 10-50 μM, most at 33 μM; 48 hours
Procedure: as §1
Computational Data Analysis-Primary Screening. For each replicate, a mock-treatment distribution based on the total population of mock (DMSO) controls in that replicate was built (FIG. 11). Each compound was independently assigned a sign (ie, “+” or “−”) Z-score. Z-scores are calculated by dividing each background-subtracted, compound-treated well by the global standard deviation. A global standard deviation of the background-subtracted, mock-treated wells is calculated over the entire experiment. This distribution was determined to be consistent with experimental noise observed under cell-based assay conditions. The resulting collection of continuousvalued Z-scores represents the primary data set to be used for further analysis. The composite Z-score was calculated as a vector projection of each Z-score in duplicate onto an imaginary line of perfect reproducibility. Reproducibility is the cosine of the angle between each Z-score and that imaginary line; it is dimensionless and ranges from −1 to +1. […] The primary data were analyzed using the commercial software packages Pipeline Pilot (SciTegic, San Diego, Calif.) and SpotFire (SpotFire, Inc., Somerville, Mass.). The means of the negative, DMSO-only controls were considered the zero point.
Primary Screening—HTS: Unless otherwise indicated, cells were incubated at all times in a humidified environment with 5% CO2 at 37° C. The assay was initiated by plating 30 μl of medium containing 2,000 cells/well into white 384-well opaque-bottom plates (Nunc; Rochester, N.Y.) using an automated plate filler (Bio-Tek μFiller; Winsooki, Vt.) and allowing the cells to adhere for 24 hours. 100 nl of compound stock solutions in DMSO were transferred from stock plates into the 384-well assay plates using an automated pin-based compound transfer robot (CyBio CyBi-Well vario; Woburn, Mass.). The final compound concentration in each well was estimated to be approximately 10-50 μM, with most compounds at 33 μM. The wells contained 0.33% DMSO by volume. The cells were then incubated for another 48 hours. […]

OR6 cells = assay: Secondary assay cell viability (CellTiter-Glo); settings: 48 hours
Procedure: Secondary Assays-Hit Validation. Several hits from primary HTS, as well as functionally related compounds, were purchased from Sigma (St. Louis, Mo.), Calbiochem (San Diego, Calif.), and Microsource (Gaylordsville, Conn.). […] Ten mM of stock solutions of the individual compounds to be tested was prepared in the appropriate solvent (DMSO, ethanol, or H2O, according to the manufacturer's information) and stored at −20° C. Cells were seeded into 96-well plates at a density of 2000 cells/well in 100 μL of medium. The cells were incubated for 24 hours at 37° C. to obtain the optimal level of adherence. Solutions of candidate hit compounds were added to wells to achieve final concentrations of 0.1, 1, 10, 50, and 100 μM. The final concentration of DMSO or ethanol in every well was 1% or less by volume. Mock solutions were used as a negative control. PEG-IFN and ribavirin were used as positive controls at various concentrations, alone and in combination. The plates were then incubated at 37° C. with 5% CO2 for 48 hours before they were analyzed. Luminescent signal was generated using the Renilla luciferase assay kit (Promega) according to the manufacturer's instructions. Signal was then detected using a LumiCount (Packard BioScience Company) luminometer. Cell viability was assessed using CellTiter-Glo (Promega), following the manufacturer's instructions. All experiments were performed in triplicate.
Secondary Assays-Data Analysis. Values were presented as a percentage of mock treated control, which was arbitrarily set at 100%. Data were expressed as the mean (±) SD. […] Synergy calculations were performed using CalcuSyn (Biosoft; Cambridge, England).
Secondary Assays—Hit Validation: 10 mM of stock solutions of the individual compounds to be tested were prepared in DMSO and stored at −20° C. Cells were seeded into 96-well plates at a density of 2,000 cells/well in 100 μl of medium. The cells were incubated for 24 hours at 37° C. to obtain the optimal level of adherence. Solutions of candidate hit compounds were added to wells to achieve varying final concentrations between 0.01 and 100 μM. The final concentration of DMSO or ethanol in every well was 1% or less by volume. Mock solutions were used as a negative control. Peginterferon-alfa-2b (PEG-Intron; Schering Corp.; Kenilworth, N.J.) and ribavirin (Sigma; St. Louis, Mo.) were used as positive controls at various concentrations, alone and in combination. The plates were then incubated at 37° C. with 5% CO2 for 48 hours before they were analyzed. Luminescent signal was generated using the Renilla luciferase assay kit (Promega; Madison, Wis.) according to the manufacturer's instructions. Signal was then detected using a LumiCount™ (Packard BioScience Company; Downers Grove, Ill.) luminometer. Cell viability was assessed using CellTiter-Glo (Promega; Madison, Wis.), following the manufacturer's instructions. All experiments were performed in triplicate. Values were presented as a percentage of mock treated control, which was arbitrarily set at 100%. Data were expressed as the mean±SD.
Secondary Assays—Data Analysis: Values were presented as a percentage of mock treated control, which was arbitrarily set at 100%. Data were expressed as the mean±SD.

[2] = Table 2 antiviral hits of DOS set, approximately 10-50 μM, most at 33 μM, 48 hours

| Compound | R-CompZ, compositeZ score for reporter gene assay [1, 2] | C-CompZ, compositeZ score for cell viability assay (Huh7/Rep-Feo cells) | cytotoxicity (in words) (OR6 cells) | concentrations at which cytotoxic effects were exhibited (OR6 cells) [µM] | R-CompZ, compositeZ score for reporter gene assay [1] |
| --- | --- | --- | --- | --- | --- |
| O=C1C2C=C(I)C(CC2c2ccccc2)[C@@]12CO2 (stereo partly drawn) [SM_A5B5_2P118] | −3.6565 | −0.4963 |  |  |  |
| O=C1C2C=C(Br)C(CC2c2ccccc2)[C@@]12CO2 (stereo partly drawn) [SM_A1B5_2P24] | −3.38 | −0.856 |  |  |  |
| COc1ccc(O[C@H]2C=C[C@@H](c3ccccc3)O[C@@H]2CO/N=C(\C)CCN2CCc3nc(-c4ccccc4)c(-c4ccccc4)cc3C2)cc1 [BUCMLD-B13A1] | −3.1824 | −0.2035 |  |  |  |
| O=C1C2C=C(I)C(CC2OCCCCCCO)[C@@]12CO2 (stereo partly drawn) [SM_A5B2_2P142] | −2.7176 | 0.5666 |  |  |  |
| CC[C@@H](c1ccccc1)n1c(=O)n2n(c1=O)[C@H]1[C@H](O)[C@@H]3O[C@@H]3/C(=N\OC[C@@H](O)COCc3ccco3)[C@H]1CC2 [BUCMLD-XL-190] | −2.5928 | 0.4558 |  |  |  |
| CC(=O)OC[C@H]1O[C@@H](O/N=C2/[C@H]3CCn4c(=O)n(-c5ccccc5)c(=O)n4[C@H]3[C@H](O)[C@@H]3O[C@H]23)[C@H](OC(C)=O)[C@@H](OC(C)=O)[C@@H]1OC(C)=O [BUCMLD-B10A13] | −2.8629 | 1.0278 |  |  |  |
| COc1ccc2cc1Oc1ccc(cc1)C[C@H]1c3cc(c(OC)cc3CCN1C)Oc1c(OC)c(OC)cc3c1[C@H](C2)N(C)CC3 [tetrandrine] |  |  | cytotoxicity |  |  |
| C#CCCCO/N=C1/[C@H]2CCn3c(=O)n([C@@H](CC)c4ccccc4)c(=O)n3[C@H]2[C@H](O)[C@@H]2O[C@H]12 [BUCMLD-XL-189] | −3.4882 | 0.2217 |  |  |  |
| O=c1n(-c2ccccc2)c(=O)n2n1CC[C@@H]1/C(=N/OC[C@@H](O)COCc3ccco3)[C@H]3O[C@H]3[C@@H](O)[C@@H]12 [BUCMLD-B10A8] | −3.7511 | 1.1582 |  |  |  |
| C[C@H](O/N=C1/[C@H]2CCn3c(=O)n(-c4ccccc4)c(=O)n3[C@H]2[C@H](O)[C@@H]2O[C@H]12)c1cn([C@H](CO)Cc2ccccc2)nn1 [BUCMLD-B10A10] | −2.7028 | 1.9213 |  |  |  |
| C[C@@]12COC[C@]13C=C(Br)C(C2)[C@@]1(CO1)C3=O [SM_A7C2_2P155] | −2.6813 | 0.6028 |  |  |  |
| Cc1c(C)c2c(c(C)c1O)CCC(C)(COc1ccc(CC3SC(=O)NC3=O)cc1)O2 (stereo not drawn) [Troglitazone, troglitazone] |  |  |  | ≥ 50 |  |
| COC12C=C(Br)C(CC1c1cccc(C)c1)[C@@]1(CO1)C2=O (stereo partly drawn) [SM_A4B6_2P123] | −3.4419 | −0.795 |  |  |  |
| C#CCCCO/N=C1/[C@H]2CCn3c(=O)n(-c4ccccc4)c(=O)n3[C@H]2[C@H](O)[C@@H]2O[C@H]12 [BUCMLD-XL-184] | −3.0142 | −0.1464 |  |  |  |
| COc1ccc(O[C@H]2C=C[C@@H](c3ccccc3)O[C@@H]2CO/N=C2/[C@H]3CCn4c(=O)n(-c5ccccc5)c(=O)n4[C@H]3[C@H](O)[C@@H]3O[C@H]23)cc1 [BUCMLD-B10A1] | −4.4774 | −1.5319 |  |  |  |
| C=CC[C@@H]1C=C[C@H](O/N=C2/[C@H]3CCn4c(=O)n(-c5ccccc5)c(=O)n4[C@H]3[C@H](O)[C@@H]3O[C@H]23)[C@@H](CO)O1 [BUCMLD-B10A7] |  | 1.1731 |  |  | −3.3561 |
